The test has as its target SARS-CoV-2 3CLpro enzyme (Severe acute respiratory syndrome coronavirus 2, UniProt P0DTD1). Briefly: biochemical. The following applies: for percent enzymatic activity, individual values / percent enzymatic activity, AVG: DMSO treated control = 100%, data of Figs. 2-4; for percent enzymatic activity, AVG: mean of 3 values; for inhibitory effect towards 3CLpro enzymatic activity (in words): in vitro enzymatic assay at the tested doses.

The mark [1] stands for this setting: dose-dependent study, 0.048828 uM, individual values.
Setting [2] is: dose-dependent study, 0.097656 uM, individual values.
Where [3] appears, read: dose-dependent study, 0.195313 uM, individual values.
The mark [4] stands for this setting: dose-dependent study, 0.390625 uM, individual values.
Setting [5] is: dose-dependent study, 0.78125 uM, individual values.
The mark [6] stands for this setting: dose-dependent study, 1.5625 uM, individual values.
[7] abbreviates: dose-dependent study, 3.125 uM, individual values.
[8] abbreviates: dose-dependent study, 12.5 uM, individual values.
Where [9] appears, read: dose-dependent study, 25 uM, individual values.
The mark [10] stands for this setting: dose-dependent study, 50 uM, individual values.
Where [11] appears, read: dose-dependent study, 100 uM, individual values.
[12] abbreviates: dose-dependent study, 6.25 uM, individual values.
[13] abbreviates: read-out: inhibition of 3CLpro enzymatic activity.

“And” between values parts separate entries of the source, which are not always exact repeats. Equal entries are not always repeated. Where two headings read alike, the source gives them in different places.

For `CC(C)(C)NC(=O)N[C@H](C(=O)N1C[C@H]2[C@@H]([C@H]1C(=O)NC(CC1CCC1)C(=O)C(N)=O)C2(C)C)C(C)(C)C` (some centres unmarked) [Boceprevir], the “inhibitory effect towards 3CLpro enzymatic activity (in words)” value is on record as “partial inhibitory effect”. Also, where the note is “50 µM drug”, the “percent enzymatic activity, individual values” was 54.8875% and 56.5635% and 59.0774%; the “percent enzymatic activity, AVG” value is listed as 56.8428%. Under setting [1], the “% activity” value was 71.4825% and the activity at 0.048828 µM turned out to be 72.9%. For the same molecule, the “% activity” value under setting [2] was 78.9417% and 76.1445%. Moreover, the activity at 0.097656 µM (dose-dependent study, 0.097656 uM, individual values, read-out: % activity) worked out at 75.2%. Further, the “% activity” value under setting [3] is listed as 74.7459%. Also, under “dose-dependent study, 0.195313 uM, individual values, read-out: % activity”, the activity at 0.195313 µM turned out to be 73.3%. The “% activity” value under setting [4] turned out to be 72.4149%. The activity at 0.390625 µM (dose-dependent study, 0.390625 uM, individual values, read-out: % activity) stood at 77.1%. The “% activity” value under setting [5] is 70.5501% and 71.9487%. Also, the activity at 0.78125 µM (dose-dependent study, 0.78125 uM, individual values, read-out: % activity) amounted to 71%. Besides, the “% activity” value under setting [6] is 78.9417% and 72.4149%. In addition, where the note is “dose-dependent study, 1.5625 uM, individual values, read-out: % activity”, the activity at 1.5625 µM was found to be 74.3%. Also, under setting [7], the “% activity” value is on record as 84.5361%. Besides, for the setting “dose-dependent study, 3.125 uM, individual values, read-out: % activity”, the activity at 3.125 µM was 73.3%. Further, where the note is “dose-dependent study, 6.25 uM, individual values, read-out: % activity”, the activity at 6.25 µM worked out at 73.8%. Further, under setting [8], the “% activity” value was 70.0839% and 64.9557%. The activity at 12.5 µM (dose-dependent study, 12.5 uM, individual values, read-out: % activity) was 61.2%. Further, under setting [9], the “% activity” value was 57.4965% and 56.0979%; the activity at 25 µM came to 51.9%. Under setting [10], the “% activity” value is 41.6457% and 41.1795%; the activity at 50 µM is 37.4%. Moreover, the “% activity” value under setting [11] is 29.5245% and 31.8555%. The activity at 100 µM (dose-dependent study, 100 uM, individual values, read-out: % activity) worked out at 26.7%. The inhibition (usually the percentage by which the read-out fell short of the control) at 50 µM (read-out: inhibition of 3CLpro enzymatic activity, 50 µM drug) turned out to be 45%.
As to `Cc1cc(CCCOc2c(C)cc(-c3noc(C(F)(F)F)n3)cc2C)on1` [Pleconaril], where the note is “50 µM drug”, the “percent enzymatic activity, individual values” is 89.2446% and 86.7306% and 85.4737%; the “percent enzymatic activity, AVG” value is recorded as 87.1496%.
For the molecule `CCOC(=O)c1ccc(OC(=O)CCCCCNC(=N)N)cc1` [Gabexate], for the setting “50 µM drug”, the “percent enzymatic activity, individual values” is 88.0184% and 104.147% and 90.7834%; the “percent enzymatic activity, AVG” value was 94.3164%.
Take `CCOC(=O)C1=C[C@@H](OC(CC)CC)[C@H](NC(C)=O)[C@@H](N)C1` [Oseltamvir Phosphate]: where the note is “50 µM drug”, the “percent enzymatic activity, individual values” was 105.843% and 84.7982% and 96.5585%; the “percent enzymatic activity, AVG” value was 95.7333%.
For `CCC(CC)[C@H](NC(C)=O)[C@@H]1[C@H](O)[C@@H](C(=O)O)C[C@H]1N=C(N)N` [Peramivir], for the setting “50 µM drug”, the “percent enzymatic activity, individual values” was 99.7193% and 97.2053% and 109.775%; the “percent enzymatic activity, AVG” value was determined as 102.233%.
In the case of `CC(C)Nc1cccnc1N1CCN(C(=O)c2cc3cc(NS(C)(=O)=O)ccc3[nH]2)CC1` [Delavirdine (mesylate), Delavirdine], for the setting “50 µM drug”, the “percent enzymatic activity, individual values” is 93.4344% and 97.6243% and 104.328%; the “percent enzymatic activity, AVG” value stood at 98.4623%.
`CC(C)(C)[C@@H]1NC(=O)O[C@@H]2CCC[C@H]2OC/C=C/C(F)(F)c2nc3ccccc3nc2O[C@@H]2C[C@@H](C(=O)N[C@]3(C(=O)NS(=O)(=O)C4(C)CC4)C[C@H]3C(F)F)N(C2)C1=O` [Glecaprevir]: where the note is “50 µM drug”, the “percent enzymatic activity, individual values” was 92.7616% and 89.3077% and 94.7353%; the “percent enzymatic activity, AVG” value is recorded as 92.2682%.
With `COc1cnc(-n2cnc(C)n2)c2[nH]cc(C(=O)C(=O)N3CCN(C(=O)c4ccccc4)CC3)c12` [Temsavir], under “50 µM drug”, the “percent enzymatic activity, individual values” was 93.8534% and 98.0433% and 100.976%; the “percent enzymatic activity, AVG” value is on record as 97.6243%.
Turning to Candicidin, for the setting “50 µM drug”, the “percent enzymatic activity, individual values” is 86.2745% and 80.3922% and 82.3529%; the “percent enzymatic activity, AVG” value worked out at 83.0065%.
For the molecule `COC(=O)N[C@H](C(=O)N1CCC[C@H]1C(=O)Nc1ccc([C@@H]2CC[C@@H](c3ccc(NC(=O)[C@@H]4CCCN4C(=O)[C@@H](NC(=O)OC)C(C)C)cc3)N2c2ccc(C(C)(C)C)cc2)cc1)C(C)C` [Ombitasvir], the “inhibitory effect towards 3CLpro enzymatic activity (in words)” value is listed as “partial inhibitory effect”. In addition, under “50 µM drug”, the “percent enzymatic activity, individual values” was 28.8321% and 35.4015% and 42.7007%; the “percent enzymatic activity, AVG” value worked out at 35.6448%. Also, the IC50 – broadly, the point on the concentration scale where inhibition reaches its midpoint – (IC50 for SARS-CoV-2 3CL protease, drugs 0 to 100 µM, 50 µM substrate, non-linear four variable fit) was 75.5 µM. Under setting [2], the “% activity” value is 102.678% and 100.823%; the activity at 0.097656 µM worked out at 106%. For the same molecule, under setting [3], the “% activity” value is 97.7299% and 97.8652%; the activity at 0.195313 µM came out at 106%. Under setting [4], the “% activity” value was 102.06% and 103.288%; the activity at 0.390625 µM amounted to 112%. Under setting [5], the “% activity” value was 107.008% and 95.4001%; the activity at 0.78125 µM was determined as 113%. Moreover, under setting [6], the “% activity” value is 102.06% and 100.823%; the activity at 1.5625 µM turned out to be 111%. Moreover, under setting [7], the “% activity” value was 111.957% and 103.781%; the activity at 3.125 µM amounted to 113%. Further, under setting [12], the “% activity” value is 105.153% and 107.726%; the activity at 6.25 µM turned out to be 115%. Further, under setting [8], the “% activity” value is 107.627% and 104.767%; the activity at 12.5 µM came out at 112%. In addition, the “% activity” value under setting [9] was 102.302% and 73.6067% and 103.288%. Also, under setting [10], the “% activity” value is 98.3582% and 67.4213% and 91.9489%. Under setting [11], the “% activity” value is 61.2358% and 60.8884%; the activity at 100 µM was 64.3%. In addition, under setting [13], the inhibition at 50 µM worked out at 65% and the inhibition at 100 µM is 50%.
In the case of `COC(=O)N[C@H](C(=O)N[C@@H](Cc1ccccc1)[C@@H](O)CN(Cc1ccc(-c2ccccn2)cc1)NC(=O)[C@@H](NC(=O)OC)C(C)(C)C)C(C)(C)C` [Atazanavir], where the note is “50 µM drug”, the “percent enzymatic activity, individual values” is 84.3318% and 88.0184% and 91.2442%; the “percent enzymatic activity, AVG” value amounted to 87.8648%.
For `CN(C)C(=O)COC(=O)Cc1ccc(OC(=O)c2ccc(NC(=N)N)cc2)cc1` [Camostat], for the setting “50 µM drug”, the “percent enzymatic activity, individual values” was 94.4701% and 101.843% and 102.304%; the “percent enzymatic activity, AVG” value is reported as 99.5392%.
Take `CC(C)(C)OC(=O)N[C@H]1CCCCC/C=C\[C@@H]2C[C@@]2(C(=O)NS(=O)(=O)C2CC2)NC(=O)[C@@H]2C[C@@H](OC(=O)N3Cc4cccc(F)c4C3)CN2C1=O` [Danoprevir]: where the note is “50 µM drug”, the “percent enzymatic activity, individual values” was 70.073% and 72.9927% and 80.6569%; the “percent enzymatic activity, AVG” value was found to be 74.5742%.
For the molecule `Cc1cccc(C)c1OCC(=O)N[C@@H](Cc1ccccc1)[C@@H](O)C[C@H](Cc1ccccc1)NC(=O)[C@H](C(C)C)N1CCCNC1=O` [Lopinavir], the “inhibitory effect towards 3CLpro enzymatic activity (in words)” value was “did not exhibit any 3CLpro inhibitory activity”. Besides, where the note is “50 µM drug”, the “percent enzymatic activity, individual values” is 75.576% and 76.4977% and 84.3318%; the “percent enzymatic activity, AVG” value is recorded as 78.8018%.
Turning to Maraviroc, under “50 µM drug”, the “percent enzymatic activity, individual values” is 91.5462% and 88.779% and 142.739%.
Regarding `COC(=O)N[C@H](C(=O)N1CCC[C@H]1c1nc2cc([C@H]3CC[C@H](c4cc5nc([C@@H]6CCCN6C(=O)[C@@H](NC(=O)OC)[C@@H](C)OC)[nH]c5cc4F)N3c3cc(F)c(N4CCC(c5ccc(F)cc5)CC4)c(F)c3)c(F)cc2[nH]1)[C@@H](C)OC` [Pibrentasvir], where the note is “50 µM drug”, the “percent enzymatic activity, individual values” was 62.0438% and 66.4234% and 69.3431%; the “percent enzymatic activity, AVG” value is 65.9367%.
For `O=C(O)[C@H]1C2CCC(CC2)[C@@H]1Nc1nc(-c2c[nH]c3ncc(F)cc23)ncc1F` [Pimodivir], the “percent enzymatic activity, individual values” (50 µM drug, listed as Pimodvir) was 92.1775% and 98.4623% and 116.898%. For the same molecule, the “percent enzymatic activity, AVG” value (50 µM drug) was determined as 102.513%.
